ChEMBL document CHEMBL4507317, “Data for DCP probe BAY-899” (2021)

Assays:
[1] = target: Serine/threonine-protein kinase RIO1 (Homo sapiens) (UniProt Q9BRS2); details: Compound concentration 1000.0 nM
[2] = target: Tyrosine-protein kinase FRK (Homo sapiens) (UniProt P42685); details: Compound concentration 1000.0 nM
[3] = target: Serine/threonine-protein kinase DCLK3 (Homo sapiens) (UniProt Q9C098); details: Compound concentration 1000.0 nM
[4] = target: Tyrosine-protein kinase Fyn (Homo sapiens) (UniProt P06241); details: Compound concentration 1000.0 nM
[5] = tested on: Epidermal growth factor receptor (Homo sapiens), P00533 [UNDEFINED MUTATION]; details: Compound concentration 1000.0 nM
[6] = target: Rhodopsin kinase GRK1 (Homo sapiens) (UniProt Q15835); details: Compound concentration 1000.0 nM
[7] = target: Ephrin type-A receptor 2 (Homo sapiens) (UniProt P29317); details: Compound concentration 1000.0 nM
[8] = target: Serine/threonine-protein kinase STK11 (Homo sapiens) (UniProt Q15831); details: Compound concentration 1000.0 nM
[9] = target: Casein kinase II subunit alpha (Homo sapiens) (UniProt P68400); details: Compound concentration 1000.0 nM
[10] = target: Calcium/calmodulin-dependent protein kinase type II subunit delta (Homo sapiens) (UniProt Q13557); details: Compound concentration 1000.0 nM
[11] = target: Cyclin-dependent kinase 2 homolog (Plasmodium falciparum (isolate 3D7)) (UniProt P61075); details: Compound concentration 1000.0 nM
[12] = target: Serine/threonine-protein kinase ULK1 (Homo sapiens) (UniProt O75385); details: Compound concentration 1000.0 nM
[13] = target: SNF-related serine/threonine-protein kinase (Homo sapiens) (UniProt Q9NRH2); details: Compound concentration 1000.0 nM
[14] = target: STE20-like serine/threonine-protein kinase (Homo sapiens) (UniProt Q9H2G2); details: Compound concentration 1000.0 nM
[15] = target: Rho-associated protein kinase 1 (Homo sapiens) (UniProt Q13464); details: Compound concentration 1000.0 nM
[16] = target: Mitogen-activated protein kinase kinase kinase 13 (Homo sapiens) (UniProt O43283); details: Compound concentration 1000.0 nM
[17] = target: Tyrosine-protein kinase Fer (Homo sapiens) (UniProt P16591); details: Compound concentration 1000.0 nM
[18] = target: Serine/threonine-protein kinase MARK1 (Homo sapiens) (UniProt Q9P0L2); details: Compound concentration 1000.0 nM
[19] = target: STE20/SPS1-related proline-alanine-rich protein kinase (Homo sapiens) (UniProt Q9UEW8); details: Compound concentration 1000.0 nM
[20] = target: Phosphatidylinositol 4-phosphate 5-kinase type-1 alpha (Homo sapiens) (UniProt Q99755); details: Compound concentration 1000.0 nM
[21] = target: Alpha-2B adrenergic receptor (Homo sapiens) (UniProt P18089); details: Compound concentration 10.0 uM
[22] = target: Cyclin-dependent kinase 17 (Homo sapiens) (UniProt Q00537); details: Compound concentration 1000.0 nM
[23] = target: Homeodomain-interacting protein kinase 4 (Homo sapiens) (UniProt Q8NE63); details: Compound concentration 1000.0 nM
[24] = target: Mitogen-activated protein kinase 15 (Homo sapiens) (UniProt Q8TD08); details: Compound concentration 1000.0 nM
[25] = target: Mitogen-activated protein kinase 6 (Homo sapiens) (UniProt Q16659); details: Compound concentration 1000.0 nM
[26] = target: 5-hydroxytryptamine receptor 3A (Homo sapiens) (UniProt P46098); details: Compound concentration 10.0 uM
[27] = target: Death-associated protein kinase 1 (Homo sapiens) (UniProt P53355); details: Compound concentration 1000.0 nM
[28] = target: RAC-gamma serine/threonine-protein kinase (Homo sapiens) (UniProt Q9Y243); details: Compound concentration 1000.0 nM
[29] = target: NUAK family SNF1-like kinase 2 (Homo sapiens) (UniProt Q9H093); details: Compound concentration 1000.0 nM
[30] = tested on: Receptor-type tyrosine-protein kinase FLT3 (Homo sapiens), P36888 [N841I]; details: Compound concentration 1000.0 nM
[31] = target: Serine/threonine-protein kinase 17A (Homo sapiens) (UniProt Q9UEE5); details: Compound concentration 1000.0 nM
[32] = tested on: Tyrosine-protein kinase ABL1 (Homo sapiens), P00519 [H396P]; details: Compound concentration 1000.0 nM
[33] = target: Serine/threonine-protein kinase TBK1 (Homo sapiens) (UniProt Q9UHD2); details: Compound concentration 1000.0 nM
[34] = target: Eukaryotic translation initiation factor 2-alpha kinase 1 (Homo sapiens) (UniProt Q9BQI3); details: Compound concentration 1000.0 nM
[35] = target: Calcium/calmodulin-dependent protein kinase kinase 2 (Homo sapiens) (UniProt Q96RR4); details: Compound concentration 1000.0 nM
[36] = target: Tyrosine-protein kinase JAK2 (Homo sapiens) (UniProt O60674); details: Compound concentration 1000.0 nM
[37] = target: Serine/threonine-protein kinase RIO2 (Homo sapiens) (UniProt Q9BVS4); details: Compound concentration 1000.0 nM
[38] = target: T1, Muscarinic acetylcholine receptor M4 (Homo sapiens) (UniProt P08173); details: Compound concentration 10.0 uM
T1 sequence (whole entry): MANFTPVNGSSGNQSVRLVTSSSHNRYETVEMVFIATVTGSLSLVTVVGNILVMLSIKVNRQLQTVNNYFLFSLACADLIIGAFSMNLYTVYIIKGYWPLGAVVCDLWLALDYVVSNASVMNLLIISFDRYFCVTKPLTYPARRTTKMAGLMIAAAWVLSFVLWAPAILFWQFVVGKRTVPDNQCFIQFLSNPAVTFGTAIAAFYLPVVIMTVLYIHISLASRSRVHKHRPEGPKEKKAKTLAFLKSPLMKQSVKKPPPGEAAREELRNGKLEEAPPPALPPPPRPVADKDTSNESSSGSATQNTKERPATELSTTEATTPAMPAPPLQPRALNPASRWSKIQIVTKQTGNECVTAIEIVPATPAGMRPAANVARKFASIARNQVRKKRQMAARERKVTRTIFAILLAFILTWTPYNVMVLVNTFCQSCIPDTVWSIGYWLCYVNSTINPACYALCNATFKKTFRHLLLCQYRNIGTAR

Chain of STE20-like serine/threonine-protein kinase (Homo sapiens) (Q9H2G2 whole entry, looked up): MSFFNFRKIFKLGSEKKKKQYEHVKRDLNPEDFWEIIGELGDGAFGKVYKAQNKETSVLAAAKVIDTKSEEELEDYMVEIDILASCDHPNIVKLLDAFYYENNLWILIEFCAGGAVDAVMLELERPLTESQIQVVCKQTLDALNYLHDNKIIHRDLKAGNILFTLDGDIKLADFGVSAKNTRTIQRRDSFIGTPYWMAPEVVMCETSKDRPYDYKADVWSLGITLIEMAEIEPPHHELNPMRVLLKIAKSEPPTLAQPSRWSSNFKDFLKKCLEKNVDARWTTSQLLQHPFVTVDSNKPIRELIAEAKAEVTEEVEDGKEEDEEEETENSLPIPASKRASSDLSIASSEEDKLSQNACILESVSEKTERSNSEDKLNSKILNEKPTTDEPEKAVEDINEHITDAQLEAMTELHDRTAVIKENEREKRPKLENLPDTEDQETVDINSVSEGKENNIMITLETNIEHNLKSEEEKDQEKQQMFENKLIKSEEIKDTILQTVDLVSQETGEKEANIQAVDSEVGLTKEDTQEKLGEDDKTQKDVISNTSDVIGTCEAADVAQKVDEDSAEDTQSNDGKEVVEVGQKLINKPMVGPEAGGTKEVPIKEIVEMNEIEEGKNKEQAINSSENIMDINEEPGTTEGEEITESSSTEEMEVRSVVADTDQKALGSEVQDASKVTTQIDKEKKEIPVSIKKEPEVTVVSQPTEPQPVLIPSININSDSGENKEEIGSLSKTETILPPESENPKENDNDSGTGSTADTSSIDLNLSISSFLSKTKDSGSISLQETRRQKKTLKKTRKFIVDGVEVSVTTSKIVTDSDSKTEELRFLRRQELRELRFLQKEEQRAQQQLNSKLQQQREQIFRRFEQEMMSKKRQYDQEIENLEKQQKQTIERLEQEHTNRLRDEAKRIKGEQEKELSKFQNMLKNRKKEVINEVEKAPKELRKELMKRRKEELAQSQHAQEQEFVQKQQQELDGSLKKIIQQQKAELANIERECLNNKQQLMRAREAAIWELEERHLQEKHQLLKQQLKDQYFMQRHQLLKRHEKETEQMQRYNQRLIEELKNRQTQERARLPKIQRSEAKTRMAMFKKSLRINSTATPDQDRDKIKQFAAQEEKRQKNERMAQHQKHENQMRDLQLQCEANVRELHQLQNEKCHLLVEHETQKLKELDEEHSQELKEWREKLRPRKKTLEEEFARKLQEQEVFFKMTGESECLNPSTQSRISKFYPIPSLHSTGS
Chain of Tyrosine-protein kinase FRK (Homo sapiens) (P42685 whole entry): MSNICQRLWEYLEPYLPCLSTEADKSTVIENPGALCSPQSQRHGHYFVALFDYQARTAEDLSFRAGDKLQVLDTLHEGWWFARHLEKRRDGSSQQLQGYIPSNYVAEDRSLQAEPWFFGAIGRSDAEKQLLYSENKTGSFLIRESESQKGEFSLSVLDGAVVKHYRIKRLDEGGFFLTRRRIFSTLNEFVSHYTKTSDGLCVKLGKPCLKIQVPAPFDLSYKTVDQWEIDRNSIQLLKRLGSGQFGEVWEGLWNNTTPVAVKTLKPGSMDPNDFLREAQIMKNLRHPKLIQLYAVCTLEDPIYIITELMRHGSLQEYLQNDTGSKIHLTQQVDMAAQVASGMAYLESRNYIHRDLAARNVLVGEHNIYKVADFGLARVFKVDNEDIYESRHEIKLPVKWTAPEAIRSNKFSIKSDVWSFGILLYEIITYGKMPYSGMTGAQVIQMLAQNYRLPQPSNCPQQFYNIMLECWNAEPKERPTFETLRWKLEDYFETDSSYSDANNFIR
Chain of Serine/threonine-protein kinase ULK1 (Homo sapiens) (O75385 whole entry): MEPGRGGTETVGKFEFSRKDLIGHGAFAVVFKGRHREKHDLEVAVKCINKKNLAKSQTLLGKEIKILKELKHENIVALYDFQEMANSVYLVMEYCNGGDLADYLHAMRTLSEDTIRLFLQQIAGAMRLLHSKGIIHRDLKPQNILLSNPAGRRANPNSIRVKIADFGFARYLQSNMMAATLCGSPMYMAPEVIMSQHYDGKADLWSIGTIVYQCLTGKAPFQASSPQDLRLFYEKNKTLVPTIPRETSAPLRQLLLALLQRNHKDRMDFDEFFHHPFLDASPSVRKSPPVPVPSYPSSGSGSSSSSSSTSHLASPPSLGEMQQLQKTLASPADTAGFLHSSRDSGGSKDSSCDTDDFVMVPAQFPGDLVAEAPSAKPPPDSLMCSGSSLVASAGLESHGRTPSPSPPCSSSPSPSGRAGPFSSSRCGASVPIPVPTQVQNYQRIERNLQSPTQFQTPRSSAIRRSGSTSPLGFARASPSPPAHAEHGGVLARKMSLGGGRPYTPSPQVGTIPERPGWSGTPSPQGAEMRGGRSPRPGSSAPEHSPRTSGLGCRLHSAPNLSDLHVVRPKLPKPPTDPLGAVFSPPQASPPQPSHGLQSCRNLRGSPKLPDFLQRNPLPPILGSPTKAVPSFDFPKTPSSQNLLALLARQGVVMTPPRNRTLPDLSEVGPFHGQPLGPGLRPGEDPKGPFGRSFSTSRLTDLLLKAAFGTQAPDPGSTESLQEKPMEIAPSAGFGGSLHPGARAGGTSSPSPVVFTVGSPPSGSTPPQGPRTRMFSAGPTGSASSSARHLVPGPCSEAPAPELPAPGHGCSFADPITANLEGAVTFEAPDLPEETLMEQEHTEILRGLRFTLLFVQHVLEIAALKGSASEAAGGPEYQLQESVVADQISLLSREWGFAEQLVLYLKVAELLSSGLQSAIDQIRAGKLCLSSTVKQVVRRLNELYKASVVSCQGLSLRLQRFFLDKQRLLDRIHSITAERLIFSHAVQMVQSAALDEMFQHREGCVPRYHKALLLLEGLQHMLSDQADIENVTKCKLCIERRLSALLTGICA
Chain of Tyrosine-protein kinase Fyn (Homo sapiens) (P06241 2-537 limits assumed): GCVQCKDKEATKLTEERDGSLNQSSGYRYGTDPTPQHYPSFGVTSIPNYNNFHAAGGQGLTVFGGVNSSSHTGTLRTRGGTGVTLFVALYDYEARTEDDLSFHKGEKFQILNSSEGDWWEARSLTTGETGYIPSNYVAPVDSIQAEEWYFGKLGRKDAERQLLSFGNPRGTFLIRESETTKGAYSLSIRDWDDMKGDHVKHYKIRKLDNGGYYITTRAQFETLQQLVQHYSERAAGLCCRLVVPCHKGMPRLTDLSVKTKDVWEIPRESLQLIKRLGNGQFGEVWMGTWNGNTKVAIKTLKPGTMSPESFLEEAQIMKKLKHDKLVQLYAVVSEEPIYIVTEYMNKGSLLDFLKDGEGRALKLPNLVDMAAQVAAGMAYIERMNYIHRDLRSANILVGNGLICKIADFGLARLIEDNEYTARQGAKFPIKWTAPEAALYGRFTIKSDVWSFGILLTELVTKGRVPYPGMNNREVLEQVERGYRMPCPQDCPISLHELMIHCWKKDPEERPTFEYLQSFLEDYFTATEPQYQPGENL
Chain of Serine/threonine-protein kinase 17A (Homo sapiens) (Q9UEE5 whole entry): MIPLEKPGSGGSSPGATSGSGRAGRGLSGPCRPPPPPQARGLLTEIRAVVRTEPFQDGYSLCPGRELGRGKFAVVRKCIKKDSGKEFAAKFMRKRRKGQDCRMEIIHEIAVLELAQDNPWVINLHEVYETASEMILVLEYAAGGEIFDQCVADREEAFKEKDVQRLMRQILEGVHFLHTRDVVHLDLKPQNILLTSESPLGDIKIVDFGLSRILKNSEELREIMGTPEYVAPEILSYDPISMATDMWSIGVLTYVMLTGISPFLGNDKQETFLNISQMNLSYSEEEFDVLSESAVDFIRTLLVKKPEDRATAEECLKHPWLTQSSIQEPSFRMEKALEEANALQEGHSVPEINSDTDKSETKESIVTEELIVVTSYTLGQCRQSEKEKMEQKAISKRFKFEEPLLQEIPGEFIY
Chain of Mitogen-activated protein kinase 15 (Homo sapiens) (Q8TD08 whole entry): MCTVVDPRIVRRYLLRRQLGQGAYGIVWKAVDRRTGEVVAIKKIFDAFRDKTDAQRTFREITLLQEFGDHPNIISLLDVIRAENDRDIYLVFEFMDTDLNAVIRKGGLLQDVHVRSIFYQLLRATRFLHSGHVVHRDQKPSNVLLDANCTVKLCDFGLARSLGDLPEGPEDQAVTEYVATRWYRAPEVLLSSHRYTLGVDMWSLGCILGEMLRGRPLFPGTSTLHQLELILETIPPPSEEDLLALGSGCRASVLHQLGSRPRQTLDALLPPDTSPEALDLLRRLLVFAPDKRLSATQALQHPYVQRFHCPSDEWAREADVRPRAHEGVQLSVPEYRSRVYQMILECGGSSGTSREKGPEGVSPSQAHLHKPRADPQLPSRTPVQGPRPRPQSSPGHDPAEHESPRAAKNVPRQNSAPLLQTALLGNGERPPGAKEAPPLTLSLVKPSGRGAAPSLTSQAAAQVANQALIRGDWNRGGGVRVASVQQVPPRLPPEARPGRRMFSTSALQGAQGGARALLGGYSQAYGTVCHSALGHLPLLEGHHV
Chain of Rhodopsin kinase GRK1 (Homo sapiens) (Q15835 whole entry): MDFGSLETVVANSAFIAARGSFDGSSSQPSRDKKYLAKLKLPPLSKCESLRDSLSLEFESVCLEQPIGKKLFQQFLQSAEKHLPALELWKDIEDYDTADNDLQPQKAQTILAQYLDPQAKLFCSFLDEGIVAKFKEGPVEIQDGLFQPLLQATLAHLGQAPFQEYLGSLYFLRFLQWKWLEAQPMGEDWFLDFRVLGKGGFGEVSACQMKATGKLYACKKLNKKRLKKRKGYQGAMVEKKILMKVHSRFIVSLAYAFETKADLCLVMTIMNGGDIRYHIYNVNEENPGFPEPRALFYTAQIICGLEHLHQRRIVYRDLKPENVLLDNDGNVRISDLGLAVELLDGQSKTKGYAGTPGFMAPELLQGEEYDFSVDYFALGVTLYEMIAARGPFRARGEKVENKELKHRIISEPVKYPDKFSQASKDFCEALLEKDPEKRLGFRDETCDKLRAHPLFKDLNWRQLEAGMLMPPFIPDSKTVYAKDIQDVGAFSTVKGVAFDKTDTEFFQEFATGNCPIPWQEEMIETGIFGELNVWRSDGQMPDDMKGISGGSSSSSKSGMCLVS

O=C(Nc1cnc(Oc2ccc(F)cc2)nc1)N1CCc2ncccc2[C@@H]1c1ccc(F)cc1 [BAY-899]
inactive: residual activity [1] 89% | residual activity [2] 98% | residual activity [3] 96% | residual activity [4] 100% | residual activity [5] 100% | residual activity [6] 91% | residual activity [7] 99% | residual activity [8] 75% | residual activity [9] 93% | residual activity [10] 92% | residual activity [11] 100% | residual activity [12] 88% | residual activity [13] 90% | residual activity [14] 82% | residual activity [15] 100% | residual activity [16] 88% | residual activity [17] 93% | residual activity [18] 71% | residual activity [19] 77% | residual activity [20] 100% | inhibition [21] 9.66% | residual activity [22] 97% | residual activity [23] 100% | residual activity [24] 93% | residual activity [25] 100% | inhibition [26] 45.8% | residual activity [27] 78% | residual activity [28] 78% | residual activity [29] 100% | residual activity [30] 88% | residual activity [31] 85% | residual activity [32] 100% | residual activity [33] 87% | residual activity [34] 100% | residual activity [35] 93% | residual activity [36] 84% | residual activity [37] 96% | inhibition [38] 22.8%

O=C(Nc1ccc(Oc2ccc(F)cc2)cc1)N1CCc2ncccc2[C@H]1c1ccc(F)cc1 [BAY-897]
inactive: residual activity [1] 100% | residual activity [2] 93% | residual activity [3] 93% | residual activity [4] 89% | residual activity [5] 74% | residual activity [6] 91% | residual activity [7] 100% | residual activity [8] 61% | residual activity [9] 99% | residual activity [10] 89% | residual activity [11] 87% | residual activity [12] 89% | residual activity [13] 90% | residual activity [14] 100% | residual activity [15] 100% | residual activity [16] 98% | residual activity [17] 91% | residual activity [18] 81% | residual activity [19] 82% | residual activity [20] 95% | inhibition [21] 49.6% | residual activity [22] 96% | residual activity [23] 96% | residual activity [24] 94% | residual activity [25] 98% | inhibition [26] 4.7% | residual activity [27] 87% | residual activity [28] 95% | residual activity [29] 82% | residual activity [30] 93% | residual activity [31] 86% | residual activity [32] 92% | residual activity [33] 81% | residual activity [34] 100% | residual activity [35] 100% | residual activity [36] 100% | residual activity [37] 94% | inhibition [38] 9.29%
